Laboratory results reported in ChEMBL document CHEMBL1275576, “In vitro activity of tomopenem (CS-023/RO4908463) against anaerobic bacteria” (Antimicrob Agents Chemother, 2009).

Legend:
[1] = tested on: Bacteroides heparinolyticus; test: Antimicrobial activity against Prevotella heparinolytica ATCC 35895 by agar dilution method in presence of 5% laked sheep blood; type: functional
[2] = tested on: Porphyromonas asaccharolytica; test: Antimicrobial activity against Porphyromonas asaccharolyticus by agar dilution method in presence of 5% laked sheep blood; type: functional
[3] = tested on: Porphyromonas asaccharolytica; test: Antimicrobial activity against Porphyromonas asaccharolyticus ATCC 25260 by agar dilution method in presence of 5% laked sheep blood; type: functional; conditions: DSM 20707
[4] = tested on: Bacteroides thetaiotaomicron; test: Antimicrobial activity against Bacteroides thetaiotaomicron by agar dilution method in presence of 5% laked sheep blood; type: functional
[5] = tested on: Desulfovibrio desulfuricans; test: Antimicrobial activity against Desulfovibrio desulfuricans by agar dilution method in presence of 5% laked sheep blood; type: functional
[6] = tested on: Bacteroides fragilis; test: Antimicrobial activity against Bacteroides fragilis by agar dilution method in presence of 5% laked sheep blood; type: functional
[7] = tested on: Peptostreptococcus anaerobius; test: Antimicrobial activity against Peptostreptococcus anaerobius by agar dilution method in presence of 5% laked sheep blood; type: functional
[8] = tested on: Prevotella sp.; test: Antimicrobial activity against Prevotella sp. by agar dilution method in presence of 5% laked sheep blood; type: functional
[9] = tested on: Bifidobacterium pseudolongum; test: Antimicrobial activity against Bifidobacterium pseudolongum ATCC 25526 by agar dilution method in presence of 5% laked sheep blood; type: functional
[10] = Antimicrobial activity against Desulfovibrio piger DSM 749 by agar dilution method in presence of 5% laked sheep blood; type: functional, Desulfovibrio piger ATCC 29098
[11] = tested on: Lactobacillus brevis; test: Antimicrobial activity against Lactobacillus brevis subsp. brevis JCM 1059 by agar dilution method in presence of 5% laked sheep blood; type: functional; conditions: Levilactobacillus brevis
[12] = tested on: Finegoldia magna; test: Antimicrobial activity against Finegoldia magna by agar dilution method in presence of 5% laked sheep blood; type: functional
[13] = tested on: Phocaeicola vulgatus; test: Antimicrobial activity against Bacteroides vulgatus GAI 0673 by agar dilution method in presence of 5% laked sheep blood; type: functional
[14] = tested on: Eggerthella lenta; test: Antimicrobial activity against Eggerthella lenta by agar dilution method in presence of 5% laked sheep blood; type: functional
[15] = tested on: Prevotella melaninogenica; test: Antimicrobial activity against Prevotella melaninogenica by agar dilution method in presence of 5% laked sheep blood; type: functional
[16] = tested on: Eubacterium limosum; test: Antimicrobial activity against Eubacterium limosum by agar dilution method in presence of 5% laked sheep blood; type: functional
[17] = tested on: Parabacteroides distasonis; test: Antimicrobial activity against Parabacteroides distasonis by agar dilution method in presence of 5% laked sheep blood; type: functional
[18] = tested on: Clostridioides difficile; test: Antimicrobial activity against Clostridium difficile by agar dilution method in presence of 5% laked sheep blood; type: functional
[19] = tested on: Bacteroides fragilis; test: Antimicrobial activity against Bacteroides fragilis GAI 0558 by agar dilution method in presence of 5% laked sheep blood; type: functional
[20] = tested on: Porphyromonas gingivalis; test: Antimicrobial activity against Porphyromonas gingivalis by agar dilution method in presence of 5% laked sheep blood; type: functional
[21] = tested on: Porphyromonas gingivalis; test: Antimicrobial activity against Porphyromonas gingivalis ATCC 33277 by agar dilution method in presence of 5% laked sheep blood; type: functional
[22] = tested on: Bacteroides fragilis; test: Antimicrobial activity against Bacteroides fragilis GAI 7955 by agar dilution method in presence of 5% laked sheep blood; type: functional
[23] = tested on: Porphyromonas uenonis; test: Antimicrobial activity against Porphyromonas uenonis by agar dilution method in presence of 5% laked sheep blood; type: functional
[24] = tested on: Clostridium perfringens; test: Antimicrobial activity against Clostridium perfringens ATCC 13124 by agar dilution method in presence of 5% laked sheep blood; type: functional
[25] = tested on: Enterocloster clostridioformis; test: Antimicrobial activity against Clostridium clostridioforme NCTC 11224 by agar dilution method in presence of 5% laked sheep blood; type: functional
[26] = tested on: Prevotella intermedia; test: Antimicrobial activity against Prevotella intermedia by agar dilution method in presence of 5% laked sheep blood; type: functional
[27] = tested on: Fusobacterium mortiferum; test: Antimicrobial activity against Fusobacterium mortiferum by agar dilution method in presence of 5% laked sheep blood; type: functional
[28] = tested on: Parvimonas micra; test: Antimicrobial activity against Parvimonas micra by agar dilution method in presence of 5% laked sheep blood; type: functional
[29] = tested on: Bacteroides uniformis; test: Antimicrobial activity against Bacteroides uniformis by agar dilution method in presence of 5% laked sheep blood; type: functional
[30] = tested on: Fusobacterium sp.; test: Antimicrobial activity against Fusobacterium sp. by agar dilution method in presence of 5% laked sheep blood; type: functional
[31] = tested on: Prevotella corporis; test: Antimicrobial activity against Prevotella corporis GAI 91000 by agar dilution method in presence of 5% laked sheep blood; type: functional
[32] = tested on: Phocaeicola vulgatus; test: Antimicrobial activity against Bacteroides vulgatus by agar dilution method in presence of 5% laked sheep blood; type: functional
[33] = tested on: Bacteroides eggerthii DSM 20697; test: Antimicrobial activity against Bacteroides eggerthii ATCC 27754 by agar dilution method in presence of 5% laked sheep blood; type: functional
[34] = tested on: Bacteroides fragilis; test: Antimicrobial activity against Bacteroides fragilis GAI 10150 by agar dilution method in presence of 5% laked sheep blood; type: functional
[35] = tested on: Parvimonas micra; test: Antimicrobial activity against Parvimonas micra VPI 5464-1 by agar dilution method in presence of 5% laked sheep blood; type: functional
[36] = tested on: Bacteroides caccae; test: Antimicrobial activity against Bacteroides caccae by agar dilution method in presence of 5% laked sheep blood; type: functional
[37] = tested on: Limosilactobacillus reuteri; test: Antimicrobial activity against Lactobacillus reuteri JCM 1112 by agar dilution method in presence of 5% laked sheep blood; type: functional
[38] = tested on: Sutterella wadsworthensis; test: Antimicrobial activity against Sutterella wadsworthensis ATCC 51579 by agar dilution method in presence of 5% laked sheep blood; type: functional
[39] = tested on: Prevotella oris; test: Antimicrobial activity against Prevotella oris ATCC 33573 by agar dilution method in presence of 5% laked sheep blood; type: functional; conditions: Segatella oris
[40] = tested on: Fusobacterium necrophorum; test: Antimicrobial activity against Fusobacterium necrophorum by agar dilution method in presence of 5% laked sheep blood; type: functional
[41] = tested on: Prevotella buccae; test: Antimicrobial activity against Prevotella buccae ATCC 33574 by agar dilution method in presence of 5% laked sheep blood; type: functional; conditions: Segatella buccae
[42] = tested on: Bacteroides fragilis; test: Antimicrobial activity against Bacteroides fragilis ATCC 25285 by agar dilution method in presence of 5% laked sheep blood; type: functional; conditions: NCTC 9343
[43] = tested on: Peptoniphilus asaccharolyticus; test: Antimicrobial activity against Peptoniphilus asaccharolyticus by agar dilution method in presence of 5% laked sheep blood; type: functional
[44] = Antimicrobial activity against Finegoldia magna ATCC 29328 by agar dilution method in presence of 5% laked sheep blood; type: functional
[45] = tested on: Bacteroides fragilis; test: Antimicrobial activity against Bacteroides fragilis NCTC 10581 by agar dilution method in presence of 5% laked sheep blood; type: functional

Cc1ncc([N+](=O)[O-])n1CCO [METRONIDAZOLE]
MIC [1]: 0.06 µg/mL
MIC50 [2]: 0.06 µg/mL
MIC90 [2]: 0.25 µg/mL
MIC [3]: 0.25 µg/mL
MIC50 [4]: 0.5 µg/mL
MIC90 [4]: 2 µg/mL
MIC50 [5]: 0.125 µg/mL
MIC90 [5]: 0.25 µg/mL
MIC50 [6]: 0.5 µg/mL
MIC90 [6]: 1 µg/mL
MIC50 [7]: 0.125 µg/mL
MIC90 [7]: 0.5 µg/mL
MIC50 [8]: 1 µg/mL
MIC90 [8]: 2 µg/mL
MIC [9]: > 128 µg/mL
MIC [10]: 0.25 µg/mL
MIC [11]: > 128 µg/mL
MIC50 [12]: 0.5 µg/mL
MIC90 [12]: 1 µg/mL
MIC [13]: 0.25 µg/mL
MIC50 [14]: 0.5 µg/mL
MIC90 [14]: 0.5 µg/mL
MIC50 [15]: 1 µg/mL
MIC90 [15]: 2 µg/mL
MIC50 [16]: 0.5 µg/mL
MIC90 [16]: 0.5 µg/mL
MIC50 [17]: 0.5 µg/mL
MIC90 [17]: 1 µg/mL
MIC50 [18]: 1 µg/mL
MIC90 [18]: 1 µg/mL
MIC [19]: 0.5 µg/mL
MIC50 [20]: 0.06 µg/mL
MIC90 [20]: 0.25 µg/mL
MIC [21]: 0.03 µg/mL
MIC [22]: 0.25 µg/mL
MIC50 [23]: 0.06 µg/mL
MIC90 [23]: 0.25 µg/mL
MIC [24]: 1 µg/mL
MIC [25]: ≤ 0.015 µg/mL
MIC50 [26]: 0.5 µg/mL
MIC90 [26]: 0.5 µg/mL
MIC50 [27]: ≤ 0.015 µg/mL
MIC90 [27]: 0.5 µg/mL
MIC50 [28]: 0.5 µg/mL
MIC90 [28]: 1 µg/mL
MIC50 [29]: 0.5 µg/mL
MIC90 [29]: 1 µg/mL
MIC50 [30]: ≤ 0.015 µg/mL
MIC90 [30]: 0.5 µg/mL
MIC [31]: 0.125 µg/mL
MIC50 [32]: 0.5 µg/mL
MIC90 [32]: 1 µg/mL
MIC [33]: 0.5 µg/mL
MIC [34]: 1 µg/mL
MIC [35]: 1 µg/mL
MIC50 [36]: 0.5 µg/mL
MIC90 [36]: 1 µg/mL
MIC [37]: > 128 µg/mL
MIC [38]: 1 µg/mL
MIC [39]: 0.25 µg/mL
MIC50 [40]: ≤ 0.015 µg/mL
MIC90 [40]: 0.5 µg/mL
MIC [41]: 0.5 µg/mL
MIC [42]: 0.5 µg/mL
MIC50 [43]: 1 µg/mL
MIC90 [43]: 2 µg/mL
MIC [44]: 1 µg/mL
MIC [45]: 1 µg/mL

C[C@@H](O)[C@H]1C(=O)N2C(C(=O)O)=C(S[C@@H]3CN[C@H](CNS(N)(=O)=O)C3)[C@H](C)[C@H]12 [DORIPENEM]
MIC [1]: 0.06 µg/mL
MIC50 [2]: 0.03 µg/mL
MIC90 [2]: 0.06 µg/mL
MIC [3]: 0.03 µg/mL
MIC50 [4]: 0.5 µg/mL
MIC90 [4]: 1 µg/mL
MIC50 [5]: 0.125 µg/mL
MIC90 [5]: 0.25 µg/mL
MIC50 [6]: 0.25 µg/mL
MIC90 [6]: 0.5 µg/mL
MIC50 [7]: 0.25 µg/mL
MIC90 [7]: 2 µg/mL
MIC50 [8]: 0.06 µg/mL
MIC90 [8]: 0.125 µg/mL
MIC [9]: 0.5 µg/mL
MIC [10]: 0.06 µg/mL
MIC [11]: 0.125 µg/mL
MIC50 [12]: 0.125 µg/mL
MIC90 [12]: 0.25 µg/mL
MIC [13]: 0.25 µg/mL
MIC50 [14]: 0.25 µg/mL
MIC90 [14]: 0.25 µg/mL
MIC50 [15]: 0.06 µg/mL
MIC90 [15]: 0.125 µg/mL
MIC50 [16]: 0.25 µg/mL
MIC90 [16]: 0.25 µg/mL
MIC50 [17]: 0.5 µg/mL
MIC90 [17]: 4 µg/mL
MIC50 [18]: 2 µg/mL
MIC90 [18]: 4 µg/mL
MIC [19]: 0.5 µg/mL
MIC50 [20]: 0.03 µg/mL
MIC90 [20]: 0.06 µg/mL
MIC [21]: ≤ 0.015 µg/mL
MIC [22]: 2 µg/mL
MIC50 [23]: 0.03 µg/mL
MIC90 [23]: 0.06 µg/mL
MIC [24]: 0.03 µg/mL
MIC [25]: 0.25 µg/mL
MIC50 [26]: 0.06 µg/mL
MIC90 [26]: 0.125 µg/mL
MIC50 [27]: 0.03 µg/mL
MIC90 [27]: 0.25 µg/mL
MIC50 [28]: 0.06 µg/mL
MIC90 [28]: 0.125 µg/mL
MIC50 [29]: 0.5 µg/mL
MIC90 [29]: 4 µg/mL
MIC50 [30]: 0.03 µg/mL
MIC90 [30]: 0.25 µg/mL
MIC [31]: 0.125 µg/mL
MIC50 [32]: 0.5 µg/mL
MIC90 [32]: 4 µg/mL
MIC [33]: 0.25 µg/mL
MIC [34]: 2 µg/mL
MIC [35]: 0.125 µg/mL
MIC50 [36]: 0.5 µg/mL
MIC90 [36]: 4 µg/mL
MIC [37]: 0.125 µg/mL
MIC [38]: 0.25 µg/mL
MIC [39]: 0.125 µg/mL
MIC50 [40]: 0.03 µg/mL
MIC90 [40]: 0.25 µg/mL
MIC [41]: 0.25 µg/mL
MIC [42]: 0.5 µg/mL
MIC50 [43]: ≤ 0.015 µg/mL
MIC90 [43]: 0.125 µg/mL
MIC [44]: 0.25 µg/mL
MIC [45]: 0.5 µg/mL

CCC[C@@H]1C[C@@H](C(=O)N[C@@H]([C@H]2O[C@H](SC)[C@H](O)[C@@H](O)[C@H]2O)[C@H](C)Cl)N(C)C1 [CLINDAMYCIN]
MIC [1]: ≤ 0.03 µg/mL
MIC [3]: ≤ 0.03 µg/mL
MIC [9]: ≤ 0.03 µg/mL
MIC [10]: 0.06 µg/mL
MIC [11]: ≤ 0.03 µg/mL
MIC [13]: 0.06 µg/mL
MIC [19]: 0.5 µg/mL
MIC [21]: ≤ 0.03 µg/mL
MIC [22]: 1 µg/mL
MIC [25]: 0.25 µg/mL
MIC [31]: ≤ 0.03 µg/mL
MIC [33]: ≤ 0.03 µg/mL
MIC [34]: 0.5 µg/mL
MIC [35]: 0.25 µg/mL
MIC [37]: ≤ 0.03 µg/mL
MIC [38]: 16 µg/mL
MIC [39]: ≤ 0.03 µg/mL
MIC [41]: ≤ 0.03 µg/mL
MIC [42]: 1 µg/mL
MIC [44]: 2 µg/mL
MIC [45]: ≤ 0.03 µg/mL
